Test results taken from patent US6894061B2, “Substituted dihydrophenanthridinesulfonamides” (Wyeth, priority 2002, dated 2005).
Where two headings read alike, the source gives them in different places.

Experiments:
ER/NF-κB = ER/NF-κB luciferase reporter in Ad5-wt-ERα infected HAECT-1 cells; type: cell-based, human; settings: for Emax: read-out: ER/NFκB Efficacy (%)*; for IC50: read-out: ER/NFκB IC50
Protocol: (§1) After four hours, cells were washed with EBM-BSA and incubated overnight in the same medium. Following overnight incubation, cells were washed with EBM-BSA and infected for 2 hours with 6 mL of a 1:10 dilution of Ad5-3x(NFκB).Luc virus (Adenovirus luciferase expression vector driven by 3 repeats of the MHC NFκb site 5′ to the thymidine kinase promoter) in EBM-BSA. After two hours, cells were washed and incubated at 34° C. for 1 hour. […] Control (no ER infection) cells were processed as above without Ad5-wt-hERα virus infection.
(§2) ERα infected HAECT-1 cells or control cells were thawed, diluted 42× in warm EBM-BSA, plated into 96-well plates at 0.1 mL/well and incubated for 4 hours at 34° C. Test compounds were added to the cells as 2× stocks in EBM-BSA containing 2 ng/mL IL-1β (R&D Systems) and the 96-well plates were returned to the incubator (34° C.). After 15-20 hours, 100 μL aliquots of media were removed from the cells and assayed for IL-6 content using a BioSource human IL-6 ELISA Kit. Cells were subsequently washed with 300 μL of Dulbecco's phosphate buffered saline and lysed in 50 μL of Cell Culture Lysis Reagent (Promega). Luciferase was determined on a Wallac Victor^2 Luminometer (Gaithersburg, Md.) using 10 μL of lysate and mixing with 100 μL of Promega Luciferase Assay reagent. Creatine kinase was determined from the rate of increase in A340 following addition of 100 μL of CK assay reagent (Sigma, cat. No 47-10) to the remainder of the cell lysate.
(§3) For IC50 and EC50 calculations, mean IL-6, luciferase or CK values versus log10 of the compound concentration were fitted to a four parameter logistic equation. The IC50/EC50 value, ‘Hill slope’, upper and lower limits of the curve were iteratively estimated.

creatine kinase = assay: Creatine kinase (CK) test procedure in Ad5-wt-ERα infected HAECT-1 cells; type: cell-based, human; settings: Ad5-wt-ERα infected HAECT-1 cells; for Emax at 10 µM / Creatin Kinase Efficacy (%): @10 μM
Protocol: as §1, §2, §3

[1] = Homo sapiens, HAECT1, read-out: Creatin Kinase Efficacy (%)

How did the Emax (ER/NF-κB; Homo sapiens, HAECT1, IL-1β) turn out when CCC1c2ccccc2-c2cc(/C=C/c3ccccc3)ccc2N1S(=O)(=O)c1ccc(O)cc1 (stereo not drawn) [Example 65, 4-{[6-Ethyl-2-[(E)-2-phenylethenyl]phenanthridin-5(6H)-yl]sulfonyl}phenol] was run?
The Emax was 93%.

What about the IC50 (ER/NF-κB; Homo sapiens, HAECT1, IL-1β) of the same compound?
Its IC50 is 241 nM.

What about the Emax at 10 µM (creatine kinase; [1]) of the same compound?
Its Emax at 10 µM is less than 35%.

How did the Emax (ER/NF-κB; Homo sapiens, HAECT1, IL-1β) turn out when CCC1c2ccccc2-c2cc(-c3ccsc3)ccc2N1S(=O)(=O)c1ccc(O)c(C)c1 (stereo not drawn) [Example 79, 4-[(6-Ethyl-2-thien-3-ylphenanthridin-5(6H)-yl)sulfonyl]-2-methylphenol] was run?
Its Emax is 86%.

What about the IC50 (ER/NF-κB; Homo sapiens, HAECT1, IL-1β) of the same compound?
The IC50 was 226 nM.

And the Emax at 10 µM (creatine kinase; [1])?
Its Emax at 10 µM is less than 35%.

Which Emax (ER/NF-κB; Homo sapiens, HAECT1, IL-1β) does the source give for CCC1c2ccccc2-c2cc(-c3cccc(O)c3)ccc2N1S(=O)(=O)c1ccc(O)c(C)c1 (stereo not drawn) [Example 84, 4-{[6-Ethyl-2-(3-hydroxyphenyl)phenanthridin-5(6H)-yl]sulfonyl}-2-methylphenol] here?
The Emax was 80%.

What about the IC50 (ER/NF-κB; Homo sapiens, HAECT1, IL-1β) of the same compound?
The IC50 was 447 nM.

And the Emax at 10 µM (creatine kinase; [1])?
The Emax at 10 µM was less than 35%.

How did the “ER/NFκB Efficacy (%)*” value (ER/NF-κB; IL-1β) turn out when CCC1c2ccccc2-c2cc(-c3ccccc3)ccc2N1S(=O)(=O)c1ccc(O)cc1 (stereo not drawn) [Example 69, 4-[(6-Ethyl-2-phnylphenanthridin-5(6H)-yl)sulfonyl]phenol] was run?
The value was 90%.

And the IC50 (ER/NF-κB; IL-1β)?
Its IC50 is 235 nM.

What about the “Creatin Kinase Efficacy (%)” value (creatine kinase) of the same compound?
The value was less than 35% @10 μM.

For CCC1c2ccccc2-c2cc(-c3ccccc3O)ccc2N1S(=O)(=O)c1ccc(O)cc1 (stereo not drawn) [Example 63, 2-{6-Ethyl-5-[(4-hydroxyphnyl)sulfonyl]-5,6-dihydrphnanthridin-2-yl}ph nol], which “ER/NFκB Efficacy (%)*” value (ER/NF-κB; IL-1β) is on record?
The value was 89%.

And the IC50 (ER/NF-κB; IL-1β)?
The IC50 was 335 nM.

What about the “Creatin Kinase Efficacy (%)” value (creatine kinase) of the same compound?
The value was less than 35% @10 μM.

How did the IC50 (ER/NF-κB; Homo sapiens, HAECT1, IL-1β) turn out when CCC1c2ccccc2-c2ccccc2N1S(=O)(=O)c1ccc(O)c(C)c1 (stereo not drawn) [Example 20, 4-[(6-Ethylphenanthridin-5(6H)-yl)sulfonyl]-2-methylphenol] was run?
Its IC50 is greater than 10000 nM.

And the Emax at 10 µM (creatine kinase; [1])?
Its Emax at 10 µM is less than 35%.

For CCC1c2cc(F)ccc2-c2cc(-c3ccsc3)ccc2N1S(=O)(=O)c1ccc(O)cc1 (stereo not drawn) [Example 52, 4-[(6-Ethyl-8-fluoro-2-thien-3-ylphenanthridin-5(6H)-yl)sulfonyl]phenol], which Emax (ER/NF-κB; Homo sapiens, HAECT1, IL-1β) is on record?
Its Emax is 95%.

And the IC50 (ER/NF-κB; Homo sapiens, HAECT1, IL-1β)?
The IC50 was 68 nM.

And the Emax at 10 µM (creatine kinase; [1])?
Its Emax at 10 µM is less than 35%.

Which results are given for CCC1c2ccccc2-c2cc(-c3cccc(OC)c3)ccc2N1S(=O)(=O)c1ccc(O)cc1 (stereo not drawn) [Example 29, 4-{[6-Ethyl-2-(3-methoxyphenyl)phenanthridin-5(6H)-yl]sulfonyl}phenol]?
Emax (ER/NF-κB; Homo sapiens, HAECT1, IL-1β): 86%; IC50 (ER/NF-κB; Homo sapiens, HAECT1, IL-1β): 234 nM; Emax at 10 µM (creatine kinase; [1]): < 35%

Which Emax (ER/NF-κB; Homo sapiens, HAECT1, IL-1β) does the source give for CCC1c2ccccc2-c2ccccc2N1S(=O)(=O)c1ccc(O)cc1 (stereo not drawn) [Example 18, 4-[(6-Ethylphenanthridin-5(6H)-yl)sulfonyl]phenol] here?
Its Emax is 76%.

What about the IC50 (ER/NF-κB; Homo sapiens, HAECT1, IL-1β) of the same compound?
The IC50 was 529 nM.

And the Emax at 10 µM (creatine kinase; [1])?
The Emax at 10 µM was less than 35%.

Which results are given for CCC1c2ccccc2-c2cc(Br)ccc2N1S(=O)(=O)c1ccc(O)c(C)c1 (stereo not drawn) [Example 21, 4-[(2-Bromo-6-ethylphenanthridin-5(6H)-yl)sulfonyl]-2-methylphenol]?
Emax (ER/NF-κB; Homo sapiens, HAECT1, IL-1β): 85%; IC50 (ER/NF-κB; Homo sapiens, HAECT1, IL-1β): 831 nM; Emax at 10 µM (creatine kinase; [1]): < 35%

Which results are given for CC1c2ccccc2-c2ccccc2N1S(=O)(=O)c1ccc(O)c(C=O)c1 (stereo not drawn) [Example 27, 2-Hydroxy-5-[(6-methylphenanthridin-5(6H)-yl)sulfonyl]b nzald hyde]?
IC50 (ER/NF-κB; IL-1β): > 10000 nM; Creatin Kinase Efficacy (%) (creatine kinase): <35% @10 μM

What does the source list for CC1c2c(O)cccc2-c2ccccc2N1S(=O)(=O)c1ccc(O)cc1 (stereo not drawn) [Example 39, 5-[(4-Hydroxyphenyl)sulfonyl]-6-methyl-5,6-dihydrophenanthridin-7-ol]?
IC50 (ER/NF-κB; Homo sapiens, HAECT1, IL-1β): > 10000 nM; Emax at 10 µM (creatine kinase; [1]): < 35%

Which “ER/NFκB Efficacy (%)*” value (ER/NF-κB; IL-1β) does the source give for CCC1c2ccccc2-c2cc(-c3ccsc3)ccc2N1S(=O)(=O)c1ccc(O)cc1 (stereo not drawn) [Example 28, 4-[(6-Ethyl-2-thin-3-ylphnanthridin-5(6H)-yl)sulfonyl]phenol] here?
The value was 98%.

What about the IC50 (ER/NF-κB; IL-1β) of the same compound?
Its IC50 is 76 nM.

And the “Creatin Kinase Efficacy (%)” value (creatine kinase)?
Its value is less than 35% @10 μM.

Which IC50 (ER/NF-κB; Homo sapiens, HAECT1, IL-1β) does the source give for CCC1c2cc(F)ccc2-c2ccccc2N1S(=O)(=O)c1ccc(OC(=O)c2ccccc2)cc1 (stereo not drawn) [Example 55, 4-[(6-Ethyl-8-fluorophenanthridin-5(6H)-yl)sulfonyl]phenyl benzoate] here?
Its IC50 is greater than 10000 nM.

What about the EC50 (creatine kinase; Homo sapiens, HAECT1, read-out: Creatin Kinase EC50) of the same compound?
The EC50 was 239 nM.

And the Emax (creatine kinase; [1])?
Its Emax is 32%.
